Source: patent US20050019341A1, “Tumor antigen” (priority 2001, published 2005)

Columns and labels:
[1] = test system: PBMC of multiple sclerosis patients; T2 cells pulsed with corresponding peptide; assay: Peptide recognition in PBMC of multiple sclerosis patients (Example 6): IFN-γ production against peptide-pulsed T2 cells; type: cell-based, human; conditions: MS Patient Case 7
Method: (§1) The PBMC were prepared by methods of the art from the blood of three primary brain tumor patients and one metastatic brain tumor patient. The PBMC obtained were stimulated by incubation with each peptide in the same way as in Example 4, and were cultured by the same method as in Example 3 using T2 cells that were pulsed with each corresponding peptide or KNS60 tumor cells as target cells, followed by measuring the quantity of IFN-γ produced. When T2 cells that were pulsed with the peptides were used as target cells, the PBMC was paired with the T2 cells in such a way that the peptide used to stimulate PBMC and the peptide pulsed to T2 cells were the same.
(§2) Among the 13 types of peptide obtained in Example 3, three peptides, P101 (SEQ ID NO: 1), P102 (SEQ ID NO: 2), and P103 (SEQ ID NO: 3), which were derived from clone 8B6, as well as three peptides, P104 (SEQ ID NO: 4), P105 (SEQ ID NO: 5), and P106 (SEQ ID NO: 6), which were derived from clone 2G2, were examined for their ability to induce CTL from PBMC obtained from multiple sclerosis patients having HLA-A2 as the HLA type and healthy subjects, in the same manner as in Example 5.

[2] = test system: PBMC of HLA-A2+ brain tumor patients; targets T2 cells pulsed with corresponding peptide and/or HLA-A2+ tumor cells; assay: Induction of CTL by peptides from PBMC of brain tumor patients (Example 5): IFN-γ production; type: cell-based, human; conditions: Patient Case 4 (brain tumor)
Method: as §1

immunoglobulin E (IgE) = assay: ELISA for peptide-specific IgE in serum; type: binding, human; conditions: serum of MS patients
Method: The presence of immunoglobulin E (IgE) and immunoglobulin G (IgG) that specifically recognize P102 (SEQ ID NO: 2), P103 (SEQ ID NO: 3), P104 (SEQ ID NO: 4), or P106 (SEQ ID NO: 6) in the serum of a multiple sclerosis patient, a brain tumor patient, and a healthy subject was measured by the enzyme-linked immunosorbent assay (ELISA).
Each aforementioned peptide (20 μg/well) was immobilized in a 96-well Nunc Covalink flat-bottomed plate (Fisher Scientific), using disuccinimidyl suberate (PIERCE), following the product instructions. This plate was blocked with Block Ace (Yukijirushi) and washed with 0.05% Tween20-PBS; a serum or blood plasma sample was diluted with 0.05% Tween20-Block Ace and added to the plate at 100 μl/well. After incubation for 2 hours at 37° C., the plate was washed with 0.05% Tween20-PBS and further incubated for 2 hours at 37° C. with rabbit anti-human IgE antibody (E chain-specific), anti-human IgG antibody (y chain-specific) (DAKO), or anti-human IgG subclass-specific antibody (Zymed Laboratories), each of which were diluted to 1:1000. […] Thereafter, the reaction was stopped by adding 1 M phosphoric acid, and the optical density (OD) at 450 nm was measured. In so doing, peptides derived from EBV, HIV, SART2 (JP-11-318455), or SART3 (Cancer Research, 1999, Volume 59, pp. […]) were used as controls and measured similarly. […]

[3] = test system: OK-CTL (HLA-A2-restricted cytotoxic T-lymphocyte strain); assay: CTL activation test: T2 cells pulsed with peptide co-cultured with OK-CTL, IFN-γ by ELISA; type: cell-based, human; conditions: E/T ratio=10, 18 hours, dose-dependent
Method: The T2 cells, pulsed with each peptide in this way, were used as the target cells (T). In addition, the OK-CTL obtained in Example 1 were used as effector cells (E). Target cells amounting to 1×10^4 and effector cells amounting to 1×10^5 were mixed (E/T ratio=10) and incubated for 18 hours. After incubation, 100 μl of supernatant was collected, and IFN-γ was measured by ELISA. The quantity of IFN-γ produced by CTL against T2 cells that were not pulsed with a peptide was taken as the background and subtracted from each measurement value.

HLA-A2+ tumor cells = assay: Peptide-stimulated PBMC of multiple sclerosis patients: recognition of tumor cells (IFN-γ); type: cell-based, human; conditions: PBMC from multiple sclerosis patients
Method: as §1, §2

IMSRDLVPRI (Designed peptide recognized by HLA-A2-restricted cytotoxic T lymphocytes) [P102, peptide derived from clone 8B6]
production of IFN-γ from PBMC [1]: enhanced production of IFN-γ
production of IFN-γ from PBMC [2]: enhanced production of IFN-γ
IgE that specifically recognizes the peptide (immunoglobulin E (IgE)): is present
recognition by OK-CTL / production of IFN-γ from OK-CTL [3]: enhanced production of IFN-γ from OK-CTL
recognition of tumor cells by peptide-stimulated PBMC (HLA-A2+ tumor cells): did not recognize the tumor cells
